Data from patent US20250018047A1, “METHODS AND COMPOSITIONS FOR TARGETED PROTEIN DEGRADATION” (Ranok Therapeutics (Hangzhou) Co. Ltd., priority 2021, published 2025).
pIC50: −log10 of the molar value.

Legend:
[1] = system: A-427 human lung carcinoma; experiment: CellTiter-Glo cancer cell line proliferation assay, A-427; assay type: cell-based; settings: Homo sapiens, A-427, 24 hr, read-out: A427 at 24 hrs, IC50
Experimental: (§1) Cell lines were cultured according to ATCC and recommendations.
(§2) CellTiter-Glo® Reagent Cancer Cell Line Proliferation Assays
(§3) Cells were plated in 96-well tissue culture plates at 4,000 cells/well and incubated at 37° C./5% CO2 for 24 hr in 100 μl of media. […] Cells were then treated with test compounds at various concentrations with a final concentration of 0.5% DMSO/well, and then incubated at 37° C./5% CO2 for 24 hr. 100 μl of CellTiter-Glo® Reagent (Promega Corporation, Madison, WI) was added to each well and processed according manufacturer's protocol. Results were analyzed and IC50-values were calculated in GraphPad 7 software.

KRAS(G12D) = molecular target: T1, KRAS(G12D) (Homo sapiens, UniProt P01116, G12D); experiment: SW1990 WB assay (degradation DC50, Dmax); assay type: cell-based; settings: Western blot, SW1990 cells
T1 construct: endogenous in cells; host or cells: SW1990
T1 sequence (P01116 1-188 isoform P01116-2 G12D): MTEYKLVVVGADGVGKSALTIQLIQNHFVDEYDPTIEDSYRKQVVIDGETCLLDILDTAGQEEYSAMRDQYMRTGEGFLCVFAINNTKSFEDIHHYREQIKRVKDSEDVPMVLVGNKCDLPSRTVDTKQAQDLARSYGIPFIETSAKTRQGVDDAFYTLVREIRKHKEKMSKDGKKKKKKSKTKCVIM

KRAS(G12D)/SOS1 = molecular target: T2, KRAS(G12D)/SOS1 (Homo sapiens, UniProt P01116, G12D); experiment: KRAS(G12D)/SOS1 homogeneous time-resolved fluorescence (HTRF) assay; assay type: binding; settings: absence of GTP, 4° C. for 3 hr
T2 construct: purchased Cisbio 63ADK000CB16PEG
T2 sequence (P01116 1-188 isoform P01116-2 G12D): as above
Experimental: The test compound was mixed and incubated with reaction components, incubated in a sealed plate at 4° C. for 3 hr and fluorescence was measured using a PerkinElmer Envision plate reader.

[2] = system: AsPC-1 human pancreatic adenocarcinoma; experiment: CellTiter-Glo cancer cell line proliferation assay, AsPC-1; assay type: cell-based; settings: Homo sapiens, ASPC1, 24 hr
Experimental: as §1, §2, §3

Structure (SMILES) | pIC50 [1] | DC50 (KRAS(G12D)) | Dmax (KRAS(G12D)) | pIC50 (KRAS(G12D)/SOS1) | pIC50 [2]
C#Cc1cccc2cc(O)cc(-c3ncc4c(N5CC6CCC(C5)N6)nc(OCC5(CN6CCN(CC7CCN(CCC(=O)N[C@@H](C(=O)N8C[C@@H](O)C[C@@H]8C(=O)NCc8ccc(-c9scnc9C)cc8)C(C)(C)C)CC7)CC6)CC5)nc4c3F)c12 [Compound 83] | < 6.00 | > 1000 nM | 10 to 50% | > 7.00 | < 6.00
C#Cc1c(F)ccc2cc(O)cc(-c3nc(OC)c4c(N5CC6CCC(C5)N6C(=O)C(F)(F)F)nc(OCC5(CN6CCN(CC7CCN(c8ccc9c(c8)CN(C8CCC(=O)NC8=O)C9=O)CC7)CC6)CC5)nc4c3F)c12 (stereo not drawn) [Compound 93] | < 6.00 | 100 to 1000 nM | 10 to 50% | > 7.00 | 6.00 to 7.00
C#Cc1cccc2cc(O)cc(-c3ncc4c(N5CC6CCC(C5)N6)nc(OCC5(CN6CCN(CC7CCN(c8ccc(NC9CCC(=O)NC9=O)cc8)CC7)CC6)CC5)nc4c3F)c12 (stereo not drawn) [Compound 95] | 6.00 to 7.00 | > 1000 nM | < 10% | > 7.00 | 6.00 to 7.00
C#Cc1cccc2cc(O)cc(-c3ncc4c(N5CC6CCC(C5)N6)nc(OCC5(CN6CCN(CC7CCN(c8ccc9c(c8)CN(C8CCC(=O)NC8=O)C9=O)CC7)[C@@H](C7CC7)C6)CC5)nc4c3F)c12 (stereo partly drawn) [Compound 96] | 6.00 to 7.00 | > 1000 nM | 10 to 50% | > 7.00 | > 7.00
C=CC(=O)N1CCN(c2nc(OCC3(CN4CCN(CC5CCN(c6ccc7c(c6)CN(C6CCC(=O)NC6=O)C7=O)CC5)CC4)CC3)nc3c2CCN(c2cccc4cccc(Cl)c24)C3)C[C@@H]1CC#N (stereo partly drawn) [Compound 98] | < 6.00 | > 1000 nM | < 10% | < 6.00 | < 6.00
C#Cc1c(F)ccc2cc(O)cc(-c3ncc4c(N5CC6CCC(C5)N6)nc(OCC5(CN6CCC(CN7CCN(c8ccc9c(c8)CN(C8CCC(=O)NC8=O)C9=O)CC7)CC6)CC5)nc4c3F)c12 (stereo not drawn) [Compound 99] | < 6.00 | < 100 nM | > 50% | > 7.00 | > 7.00
C#Cc1c(F)ccc2cc(O)cc(-c3nc(OC)c4c(N5CC6CCC(C5)N6)nc(OCC5(CN6CCN(CC7CCN(c8ccc9c(c8)CN(C8CCC(=O)NC8=O)C9=O)CC7)CC6)CC5)nc4c3F)c12 (stereo not drawn) [Compound 100] | 6.00 to 7.00 | > 1000 nM | 10 to 50% | > 7.00 | > 7.00
C#Cc1c(F)ccc2cc(O)cc(-c3ncc4c(N5CC6CCC(C5)N6)nc(OCC5(CN6CCC(C7CCN(c8ccc9c(c8)CN(C8CCC(=O)NC8=O)C9=O)CC7)CC6)CC5)nc4c3F)c12 (stereo not drawn) [Compound 102] | 6.00 to 7.00 | 100 to 1000 nM | 10 to 50% | > 7.00 | > 7.00
C#Cc1c(F)ccc2cc(O)cc(-c3ncc4c(N5CC6CCC(C5)N6)nc(OCC5(CN6CCN(CC7CN(c8ccc9c(c8)CN(C8CCC(=O)NC8=O)C9=O)C7)CC6)CC5)nc4c3F)c12 (stereo not drawn) [Compound 103] | < 6.00 | > 1000 nM | 10 to 50% | > 7.00 | 6.00 to 7.00
